These are literature values, as cited in PMC7150867, “Molecular Imaging of Galectin-1 Expression as a Biomarker of Papillary Thyroid Cancer by Using Peptide-Functionalized Imaging Probes” (Biology, 2020).

The text on the series:
To validate the effectiveness of gal-1-targeted peptides, another type of probe and therefore imaging of thyroid cancer was explored. Owing to its high sensitivity, in the order of nanomolar, resolution in the range of 50–130 µm, and nonionizing radiation, FLI appears as a promising imaging technique in the field of biomedical research and clinical diagnosis of a wide range of pathologies. In oncology, FLI enables early diagnosis and the depiction of the extent of cancer invasion, improving the accuracy of tumor resection.

Consider “YSWHIDIVAPRN [Peptide P7, gal-1-targeted 12-mer linear peptide identified by phage display]”, for which the LogP is 1.02. For the same sequence, the LogD7.4 (pH 7.4) is given as −7.63.
